The results in this text go back to ChEMBL document CHEMBL5335843, “Application of tobramycin benzyl ether as an antibiotic adjuvant capable of sensitizing multidrug-resistant Gram-negative bacteria to rifampicin” (2024).

Values after ≈ are worked out from the molar mass of the structure shown. Active and inactive are the calls of the source. No cut-off for these calls is given here. Positions of bridges follow the written chain, without caps; N, C: chain ends. Non-standard residues stand in square brackets, D forms with d. Residues, ends and D or L forms follow the SMILES beside them. *: point of attachment. X1 = CC[C@H](C)CCCCC(=O)*; dDab = NCC[C@@H](N)C(=O)O; Dab = NCC[C@H](N)C(=O)O

What all share (assay type): functional
Test [1] deals with Escherichia coli. Description: Antibacterial activity against multi-drug resistant Escherichia coli clinical isolate EC107115 assessed as inhibition of bacterial growth incubated for 18 hrs by two fold broth microdilution assay.
The subject of test [2] is Pseudomonas aeruginosa. Description: Antibacterial activity against multi-drug resistant Pseudomonas aeruginosa clinical isolate PA114228 assessed as inhibition of bacterial growth incubated for 18 hrs by two fold broth microdilution assay.
Test [3] concerns Pseudomonas aeruginosa. Description: Antibacterial activity against multi-drug resistant Pseudomonas aeruginosa clinical isolate PA262 assessed as inhibition of bacterial growth incubated for 18 hrs by two fold broth microdilution assay. A general note: In broth dilution the organism is exposed to a series of concentrations in liquid medium.
Test [4] deals with Escherichia coli. Description: Antibacterial activity against multi-drug resistant Escherichia coli clinical isolate EC94474 assessed as inhibition of bacterial growth incubated for 18 hrs by two fold broth microdilution assay.
For test [5], the system named is Pseudomonas aeruginosa. Description: Antibacterial activity against multi-drug resistant Pseudomonas aeruginosa clinical isolate PA264 assessed as inhibition of bacterial growth incubated for 18 hrs by two fold broth microdilution assay.
Test [6] deals with Pseudomonas aeruginosa. As to the kind of experiment: Antibacterial activity against multi-drug resistant Pseudomonas aeruginosa clinical isolate PA259 assessed as inhibition of bacterial growth incubated for 18 hrs by two fold broth microdilution assay.
For test [7], the system named is Pseudomonas aeruginosa. As to the kind of experiment: Antibacterial activity against multi-drug resistant Pseudomonas aeruginosa clinical isolate PA101243 assessed as inhibition of bacterial growth incubated for 18 hrs by two fold broth microdilution assay.
The test system of test [8] is Acinetobacter baumannii. As to the kind of experiment: Antibacterial activity against multi-drug resistant Acinetobacter baumannii clinical isolate AB027 assessed as inhibition of bacterial growth incubated for 18 hrs by two fold broth microdilution assay.
Test [9] concerns Enterococcus faecium. Description: Antibacterial activity against Enterococcus faecium 128149 assessed as inhibition of bacterial growth incubated for 18 hrs by two fold broth microdilution assay.
In test [10] the test system is Pseudomonas aeruginosa. As to the kind of experiment: Antibacterial activity against multi-drug resistant Pseudomonas aeruginosa clinical isolate 101243 assessed as inhibition of bacterial growth incubated for 18 hrs by two fold broth microdilution assay.
In test [11] the test system is Acinetobacter baumannii. As to the kind of experiment: Antibacterial activity against multi-drug resistant Acinetobacter baumannii clinical isolate 92247 assessed as inhibition of bacterial growth incubated for 18 hrs by two fold broth microdilution assay.
Test [12] concerns Acinetobacter baumannii. As to the kind of experiment: Antibacterial activity against multi-drug resistant Acinetobacter baumannii clinical isolate 110193 assessed as inhibition of bacterial growth incubated for 18 hrs by two fold broth microdilution assay.
For test [13], the system named is Acinetobacter baumannii. Description: Antibacterial activity against multi-drug resistant Acinetobacter baumannii clinical isolate LAC-4 assessed as inhibition of bacterial growth incubated for 18 hrs by two fold broth microdilution assay.
The subject of test [14] is Enterococcus faecium. As to the kind of experiment: Antibacterial activity against Enterococcus faecium 114278 assessed as inhibition of bacterial growth incubated for 18 hrs by two fold broth microdilution assay.
The subject of test [15] is Pseudomonas aeruginosa. Description: Antibacterial activity against multi-drug resistant Pseudomonas aeruginosa clinical isolate 114228 assessed as inhibition of bacterial growth incubated for 18 hrs by two fold broth microdilution assay.
Test [16] deals with Escherichia coli. Description: Antibacterial activity against multi-drug resistant Escherichia coli clinical isolate 94474 assessed as inhibition of bacterial growth incubated for 18 hrs by two fold broth microdilution assay.
Test [17] relates to Escherichia coli. Description: Antibacterial activity against multi-drug resistant Escherichia coli clinical isolate 107115 assessed as inhibition of bacterial growth incubated for 18 hrs by two fold broth microdilution assay.
For test [18], the system named is Staphylococcus aureus. Description: Antibacterial activity against methicilin-resistant Staphylococcus aureus assessed as inhibition of bacterial growth incubated for 18 hrs by two fold broth microdilution assay.
Test [19] concerns Escherichia coli. Description: Antibacterial activity against multi-drug resistant Escherichia coli clinical isolate 94393 assessed as inhibition of bacterial growth incubated for 18 hrs by two fold broth microdilution assay.
Test [20] deals with Acinetobacter baumannii. As to the kind of experiment: Antibacterial activity against multi-drug resistant Acinetobacter baumannii clinical isolate AB031 assessed as inhibition of bacterial growth incubated for 18 hrs by two fold broth microdilution assay.
Test [21] concerns Escherichia coli. Description: Antibacterial activity against Escherichia coli ATCC 25922 assessed as inhibition of bacterial growth incubated for 18 hrs by two fold broth microdilution assay.
Test [22] concerns Escherichia coli. Description: Antibiotic adjuvant activity against Escherichia coli ATCC 25922 assessed as rifampicin MIC incubated for 18 hrs in presence of Rifampicin by two fold broth microdilution checkerboard assay.
The test system of test [23] is Acinetobacter baumannii. Description: Antibiotic adjuvant activity against Acinetobacter baumannii ATCC 17978 assessed as fold potentiation incubated for 18 hrs in presence of Rifampicin by two fold broth microdilution checkerboard assay.
The subject of test [24] is Acinetobacter baumannii. As to the kind of experiment: Antibiotic adjuvant activity against Acinetobacter baumannii ATCC 17978 assessed as rifampicin MIC incubated for 18 hrs in presence of Rifampicin by two fold broth microdilution checkerboard assay.
Test [25] has as its system Pseudomonas aeruginosa. Description: Antibiotic adjuvant activity against Pseudomonas aeruginosa PAO1 assessed as fold potentiation incubated for 18 hrs in presence of Rifampicin by two fold broth microdilution checkerboard assay.
The test system of test [26] is Acinetobacter baumannii. As to the kind of experiment: Antibacterial activity against Acinetobacter baumannii ATCC 17978 assessed as inhibition of bacterial growth incubated for 18 hrs by two fold broth microdilution assay.
The test system of test [27] is Escherichia coli. Description: Antibiotic adjuvant activity against Escherichia coli ATCC 25922 assessed as fold potentiation incubated for 18 hrs in presence of Rifampicin by two fold broth microdilution checkerboard assay.
The test system of test [28] is Pseudomonas aeruginosa. As to the kind of experiment: Antibacterial activity against Pseudomonas aeruginosa PAO1 assessed as inhibition of bacterial growth incubated for 18 hrs by two fold broth microdilution assay.
Test [29] relates to Enterococcus faecium. As to the kind of experiment: Antibiotic adjuvant activity against Enterococcus faecium 114278 assessed as inhibition of bacterial growth incubated for 18 hrs in presence of rifampicin by two fold broth microdilution checkerboard assay.
For test [30], the system named is Staphylococcus aureus. As to the kind of experiment: Antibiotic adjuvant activity against methicilin-resistant Staphylococcus aureus assessed as inhibition of bacterial growth incubated for 18 hrs in presence of rifampicin by two fold broth microdilution checkerboard assay.
Test [31] has as its system Enterococcus faecium. Description: Antibiotic adjuvant activity against Enterococcus faecium 128149 assessed as inhibition of bacterial growth incubated for 18 hrs in presence of rifampicin by two fold broth microdilution checkerboard assay.

Broadly, the MIC is the lowest concentration that inhibits growth of the organism.

Turning to `CN(C)c1ccc(O)c2c1C[C@H]1C[C@H]3[C@H](N(C)C)C(O)=C(C(N)=O)C(=O)[C@@]3(O)C(O)=C1C2=O` [MINOCYCLINE], the minimum inhibitory concentration (MIC) in test [1] is 32 µg/mL (≈ 69.9 µM); in test [2], 128 µg/mL (≈ 280 µM); in [3], 256 µg/mL (≈ 560 µM); in test [4], 64 µg/mL (≈ 140 µM); in [5] it was 32 µg/mL (≈ 69.9 µM); in [6], 128 µg/mL (≈ 280 µM). For the same compound, in [7], the minimal inhibitory concentration (MIC) was 64 µg/mL (≈ 140 µM).
On to `CO[C@H]1/C=C/O[C@@]2(C)Oc3c(C)c(O)c4c(O)c(c(/C=N/N5CCN(C)CC5)c(O)c4c3C2=O)NC(=O)/C(C)=C\C=C\[C@H](C)[C@H](O)[C@@H](C)[C@@H](O)[C@@H](C)[C@H](OC(C)=O)[C@@H]1C` [RIFAMPIN], for which the MIC stood at 8 µg/mL (≈ 9.72 µM) in test [8]; 8 µg/mL (≈ 9.72 µM) in test [9]; 4 µg/mL (≈ 4.86 µM) in test [10]; 4 µg/mL (≈ 4.86 µM) in test [11]; 4 µg/mL (≈ 4.86 µM) in [12]; 512 µg/mL (≈ 622 µM) in test [3]. For the same compound, the MIC in [13] was found to be 2 µg/mL (≈ 2.43 µM); in test [14], 4 µg/mL (≈ 4.86 µM); in [15], 16 µg/mL (≈ 19.4 µM); in test [16], 8 µg/mL (≈ 9.72 µM); in test [17], 128 µg/mL (≈ 156 µM); in test [18], 256 µg/mL (≈ 311 µM). The MIC in [5] was found to be 16 µg/mL (≈ 19.4 µM); in test [6], 16 µg/mL (≈ 19.4 µM); in test [19] it was 32 µg/mL (≈ 38.9 µM); in test [20] it was 2 µg/mL (≈ 2.43 µM).
Take `C[C@H]1c2cccc(O)c2C(=O)C2=C(O)[C@]3(O)C(=O)C(C(N)=O)=C(O)[C@@H](N(C)C)[C@@H]3[C@@H](O)[C@@H]21.O` [DOXYCYCLINE]: the MIC is 128 µg/mL in test [1]; greater than 128 µg/mL in test [2]; 512 µg/mL in [3]; 64 µg/mL in [4]; 64 µg/mL in test [5]; 256 µg/mL in test [6]. Also, in [7], the minimum inhibitory concentration (MIC) was greater than 128 µg/mL.
Take `Cl.NC[C@H]1O[C@H](O[C@H]2[C@H](OCc3ccccc3)[C@@H](OCc3ccccc3)[C@H](N)C[C@@H]2N)[C@H](N)C[C@@H]1OCc1ccccc1`: the minimal inhibitory concentration (MIC) was greater than 128 µg/mL in test [21]; 0.0312 µg/mL in test [22]; 1 µg/mL in test [24]; greater than 128 µg/mL in test [26]; greater than 128 µg/mL in test [28]. Also, the “fold change (FC)” value was 4 in [23], 4 in [25] and 512 in [27].
On to `CC[C@H](C)CCCCC(=O)N[C@@H](CCN)C(=O)N[C@H](C(=O)N[C@@H](CCN)C(=O)N[C@H]1CCNC(=O)[C@H]([C@@H](C)O)NC(=O)[C@H](CCN)NC(=O)[C@H](CCN)NC(=O)[C@H](CC(C)C)NC(=O)[C@@H](Cc2ccccc2)NC(=O)[C@@H](CCN)NC1=O)[C@@H](C)O` (X1-[Dab]T[Dab][Dab][dDab][dF]L[Dab][Dab]T; lactam 4-C), for which the result in test [29], in test [30] and in [31] was Active.
With `CC[C@H](C)CCCCC(=O)N[C@@H](CCN)C(=O)N[C@H](C(=O)N[C@@H](CCN)C(=O)N[C@H]1CCNC(=O)[C@H]([C@@H](C)O)NC(=O)[C@H](CCN)NC(=O)[C@H](CCN)NC(=O)[C@H](CC(C)C)NC(=O)[C@@H](Cc2ccccc2)NC(=O)[C@H](CCN)NC1=O)[C@@H](C)O` (X1-[Dab]T[Dab][Dab][Dab][dF]L[Dab][Dab]T; lactam 4-C), the MIC in test [9], in [14] and in [18] was greater than 128 µg/mL throughout.
On to `CC(C)CCO[C@@H]1[C@@H](OCCC(C)C)[C@H](N)C[C@H](N)[C@H]1O[C@H]1O[C@H](CN)[C@@H](OCCC(C)C)C[C@H]1N.Cl`, for which the MIC is greater than 128 µg/mL in test [21]; 0.0156 µg/mL in [22]; 0.5 µg/mL in test [24]; greater than 128 µg/mL in test [26]; greater than 128 µg/mL in test [28]. In addition, the “fold change (FC)” value in test [23] came to 4; in test [25], 4; in test [27], 512.
